In patent US20240148717A1, “COMBINATION THERAPY FOR TREATMENT OF CONDITIONS ASSOCIATED WITH AGING” (priority 2021, published 2024):

Assays:
[1] = system: spirochetes; assay: Case study Patient A: penicillin G, then with Lycopene and Allicin, for neuro-spirochetosis; format: in vivo, human; details: 24 million units per day intravenously every 4 hours, after a few days
Experimental: A patient (below, “Patient A”) was hospitalized on 10 Jun. 2019 and reported the following symptoms: • Fatigue; • Rash similar to a syphilis rash Patient A experienced 6 months previous; • Blurred vision; and • Headache and impaired thinking.
Based on the above results Patient A was treated with aqueous crystalline penicillin G 24 million units per day, administered intravenously every 4 hours.
On 23 Feb. […] However, other spirochetes were present which could create systemic infection. Among these bacteria, Patient A had Brachyspira, a slow-growing anaerobic spirochete that can colonize the large intestine of animals including humans. While Brachyspira is known for causing diarrhea, it was recently discovered that it could also attack other organs. It was found in the Alzheimer's brain (Miklossy, 2011 [16]) and has been recently been associated with other human chronic conditions (Hampson, 2017 [17]). One human experimental infection was recently performed, where a volunteer drank cultures of Brachyspira isolated from an Australian Aboriginal child with diarrhea, and reported headaches, among other symptoms. (Hampson, 2017 [18]).
After a number of medical consultations, Patient A agreed to follow a non-standard protocol, extending penicillin treatment s to a 6+week course for neuro-spirochetosis. […]

[2] = system: gray hair; assay: Case study Patient A: hydroxychloroquine and curcumin added at end of therapy, gray hair; format: in vivo, human; details: hydroxychloroquine 200 mg per day for one month plus curcumin 3 g per day, added at end of therapy (FIG. 7)
Description: Patient reported the following improvements—including the *very surprising* disappearance of minor symptoms they had not been aware of beforehand. A summary follows: • Eyes. Vision blur resolved almost completely. • Brain. Improved cognitive functions short-and-long-term memory (they reported faster typing). • Numbness. Some minor parts of their body that had been numb since the 2008 neuropathy, such as the tips of the toes, started to regain sensitivity. • Body. Even in a condition of little exercise while being hospitalized the patient lost about 5 kg in 2 weeks and seemed more toned and in generally better condition (FIG. 2). • Asthma. Patient A reported better breathing. […] Joints in hands started swelling, and then healing (see FIG. 5). Arthritis has been reported both with spirochetes and Chlamydia Pneumoniae infections (Steere, 1987 [19], Porritt, 2016 [20]). • Prostate. Patient A never had prostate problems. However, they reported a larger urine flow and more frequent nocturnal penile tumescence. • Skin. Lesions and sclerotic plaques on their hands, which dated back from 2008, started healing. They resembled a sub-clinical manifestation of Acrodermatitis Chronica Atrophicans, which appears in phase 3 of European borreliosis (see FIG. 3). Incidentally, the healing process highlighted a small-scale bull's eye patterns, with a white patch and a red dot at the center (FIG. 4). […]

Compound	Effect of therapy (patient feeling better, vision improving) [1]	Reversal of gray hair [2]
CC1(C)S[C@@H]2[C@H](NC(=O)Cc3ccccc3)C(=O)N2[C@H]1C(=O)O [aqueous crystalline penicillin G, penicillin G]	seemed effective	–
CCN(CCO)CCCC(C)Nc1ccnc2cc(Cl)ccc12 (stereo not drawn) [hydroxychloroquine]	–	partial reversal of gray hair
COc1cc(/C=C/C(=O)CC(=O)/C=C/c2ccc(O)c(OC)c2)ccc1O [curcumin]	–	partial reversal of gray hair
